In ChEMBL document CHEMBL1909046, “DrugMatrix in vitro pharmacology data” one finds IC50 and Ki data, which are given here for 25 compounds.

The structures appear in SMILES notation.

The target in series [1] is T1, Alpha-2A adrenergic receptor (Homo sapiens, UniProt P08913). Also: in other assays of this panel Not Active means under 50% inhibition at 10 µM.
T1 sequence (P08913 whole entry): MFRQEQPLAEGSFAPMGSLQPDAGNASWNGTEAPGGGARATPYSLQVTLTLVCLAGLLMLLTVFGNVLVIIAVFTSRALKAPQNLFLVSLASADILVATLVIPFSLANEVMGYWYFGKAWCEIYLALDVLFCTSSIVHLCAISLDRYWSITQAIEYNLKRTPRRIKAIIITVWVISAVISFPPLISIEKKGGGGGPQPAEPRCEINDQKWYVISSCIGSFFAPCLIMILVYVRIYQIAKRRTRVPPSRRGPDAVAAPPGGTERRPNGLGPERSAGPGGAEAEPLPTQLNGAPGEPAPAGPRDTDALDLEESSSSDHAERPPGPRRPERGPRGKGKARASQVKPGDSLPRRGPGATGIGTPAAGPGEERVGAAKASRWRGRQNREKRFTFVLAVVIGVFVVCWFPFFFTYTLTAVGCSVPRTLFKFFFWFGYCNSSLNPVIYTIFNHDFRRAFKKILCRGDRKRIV
The class given is cell membranes, Sf9, Membrane. The settings on record: for Ki: read-out: Ki.

Series [2] concerns the target Vascular endothelial growth factor receptor 1 (Homo sapiens, UniProt P17948). The format is cell-based. Particulars: huvec. Also: in other assays of this panel Not Active means under 50% inhibition at 10 µM.
The target of another series is Cannabinoid receptor 1 (Homo sapiens, UniProt P21554). The format is cell membranes, Chem-1, Membrane. Also: in other assays of this panel Not Active means under 50% inhibition at 10 µM.
Cannabinoid receptor 1, sequence (P21554 whole entry): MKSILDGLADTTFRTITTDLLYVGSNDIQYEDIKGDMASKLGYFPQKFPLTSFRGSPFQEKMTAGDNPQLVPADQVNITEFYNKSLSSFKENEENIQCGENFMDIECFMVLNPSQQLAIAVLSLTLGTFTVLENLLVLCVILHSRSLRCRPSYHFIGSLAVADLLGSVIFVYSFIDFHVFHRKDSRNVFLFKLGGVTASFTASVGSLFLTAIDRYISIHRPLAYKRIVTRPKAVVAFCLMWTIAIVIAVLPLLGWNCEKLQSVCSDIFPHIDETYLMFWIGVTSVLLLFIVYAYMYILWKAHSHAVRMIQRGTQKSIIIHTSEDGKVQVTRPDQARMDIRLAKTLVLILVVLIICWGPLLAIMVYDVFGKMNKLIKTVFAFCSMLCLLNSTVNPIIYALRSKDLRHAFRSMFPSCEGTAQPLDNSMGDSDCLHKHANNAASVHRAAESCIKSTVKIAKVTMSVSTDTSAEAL
The target of series [3] is Mitogen-activated protein kinase 1 (Homo sapiens, UniProt P28482). The series is described as follows: DRUGMATRIX: Protein Serine/Threonine Kinase, ERK2 enzyme inhibition (substrate: Myelin Basic Protein). The settings on record: Not Active = under 50% inhibition at 10 µM. More on the design: species or system Escherichia coli.
Mitogen-activated protein kinase 1, sequence (P28482 whole entry): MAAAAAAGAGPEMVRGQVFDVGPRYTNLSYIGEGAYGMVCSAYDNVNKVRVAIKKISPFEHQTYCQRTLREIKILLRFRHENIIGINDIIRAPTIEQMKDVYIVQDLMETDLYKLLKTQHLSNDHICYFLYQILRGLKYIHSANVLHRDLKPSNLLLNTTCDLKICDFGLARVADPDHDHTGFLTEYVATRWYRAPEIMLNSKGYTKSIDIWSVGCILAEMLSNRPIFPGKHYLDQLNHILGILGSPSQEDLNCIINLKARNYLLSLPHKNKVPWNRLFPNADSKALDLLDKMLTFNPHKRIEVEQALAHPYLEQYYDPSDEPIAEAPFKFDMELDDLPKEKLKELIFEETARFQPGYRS
Another series has as its target T2, Adenosine receptor A3 (Homo sapiens, UniProt P0DMS8).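 Also: radioligand binding assay with AB-MECA serving as the labeled ligand; in other assays of this panel Not Active means under 50% inhibition at 10 µM.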
T2 sequence (P0DMS8 whole entry): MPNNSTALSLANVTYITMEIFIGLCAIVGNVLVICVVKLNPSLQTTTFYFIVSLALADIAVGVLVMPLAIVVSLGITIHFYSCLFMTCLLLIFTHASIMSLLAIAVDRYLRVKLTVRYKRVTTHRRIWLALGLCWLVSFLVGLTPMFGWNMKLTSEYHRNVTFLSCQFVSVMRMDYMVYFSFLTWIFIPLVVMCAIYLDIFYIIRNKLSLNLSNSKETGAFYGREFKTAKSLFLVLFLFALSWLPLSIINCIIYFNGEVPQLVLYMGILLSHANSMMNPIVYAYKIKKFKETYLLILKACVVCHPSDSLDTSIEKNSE
The class given is cell membranes, CHO-K1, Membrane.

Series [4] addresses Voltage-gated inwardly rectifying potassium channel KCNH2 (Homo sapiens, UniProt Q12809). Particulars: hek293.

Voltage-gated inwardly rectifying potassium channel KCNH2, sequence (Q12809 whole entry): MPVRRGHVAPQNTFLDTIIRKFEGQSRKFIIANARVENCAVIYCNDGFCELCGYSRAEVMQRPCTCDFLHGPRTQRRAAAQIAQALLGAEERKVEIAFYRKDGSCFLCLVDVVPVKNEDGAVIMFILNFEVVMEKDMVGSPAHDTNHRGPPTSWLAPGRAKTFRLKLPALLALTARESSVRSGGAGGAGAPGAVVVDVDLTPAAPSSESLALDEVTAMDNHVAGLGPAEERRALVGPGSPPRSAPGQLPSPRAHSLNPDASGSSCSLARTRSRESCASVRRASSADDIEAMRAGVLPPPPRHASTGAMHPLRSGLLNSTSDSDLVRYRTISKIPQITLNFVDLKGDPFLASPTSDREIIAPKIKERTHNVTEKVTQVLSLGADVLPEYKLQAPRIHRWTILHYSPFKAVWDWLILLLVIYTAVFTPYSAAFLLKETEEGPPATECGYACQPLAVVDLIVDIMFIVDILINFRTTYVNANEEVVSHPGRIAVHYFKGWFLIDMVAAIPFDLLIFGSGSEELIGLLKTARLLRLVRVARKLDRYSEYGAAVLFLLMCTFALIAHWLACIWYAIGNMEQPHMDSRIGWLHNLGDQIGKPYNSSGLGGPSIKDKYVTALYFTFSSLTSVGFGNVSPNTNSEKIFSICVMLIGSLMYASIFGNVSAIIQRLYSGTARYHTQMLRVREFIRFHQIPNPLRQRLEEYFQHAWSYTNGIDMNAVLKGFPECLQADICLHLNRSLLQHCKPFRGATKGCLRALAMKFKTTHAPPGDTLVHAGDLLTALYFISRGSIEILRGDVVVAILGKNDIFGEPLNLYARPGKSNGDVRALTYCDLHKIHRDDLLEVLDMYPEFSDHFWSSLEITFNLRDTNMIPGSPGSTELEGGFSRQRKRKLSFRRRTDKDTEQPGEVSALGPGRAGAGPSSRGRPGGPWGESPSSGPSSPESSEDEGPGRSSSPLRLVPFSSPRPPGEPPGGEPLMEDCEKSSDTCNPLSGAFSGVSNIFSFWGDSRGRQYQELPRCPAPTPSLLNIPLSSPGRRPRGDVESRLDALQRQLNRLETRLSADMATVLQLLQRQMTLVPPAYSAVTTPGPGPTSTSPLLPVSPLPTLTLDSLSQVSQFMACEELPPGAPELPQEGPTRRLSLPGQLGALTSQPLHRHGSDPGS
Vascular endothelial growth factor receptor 1, sequence (P17948 whole entry): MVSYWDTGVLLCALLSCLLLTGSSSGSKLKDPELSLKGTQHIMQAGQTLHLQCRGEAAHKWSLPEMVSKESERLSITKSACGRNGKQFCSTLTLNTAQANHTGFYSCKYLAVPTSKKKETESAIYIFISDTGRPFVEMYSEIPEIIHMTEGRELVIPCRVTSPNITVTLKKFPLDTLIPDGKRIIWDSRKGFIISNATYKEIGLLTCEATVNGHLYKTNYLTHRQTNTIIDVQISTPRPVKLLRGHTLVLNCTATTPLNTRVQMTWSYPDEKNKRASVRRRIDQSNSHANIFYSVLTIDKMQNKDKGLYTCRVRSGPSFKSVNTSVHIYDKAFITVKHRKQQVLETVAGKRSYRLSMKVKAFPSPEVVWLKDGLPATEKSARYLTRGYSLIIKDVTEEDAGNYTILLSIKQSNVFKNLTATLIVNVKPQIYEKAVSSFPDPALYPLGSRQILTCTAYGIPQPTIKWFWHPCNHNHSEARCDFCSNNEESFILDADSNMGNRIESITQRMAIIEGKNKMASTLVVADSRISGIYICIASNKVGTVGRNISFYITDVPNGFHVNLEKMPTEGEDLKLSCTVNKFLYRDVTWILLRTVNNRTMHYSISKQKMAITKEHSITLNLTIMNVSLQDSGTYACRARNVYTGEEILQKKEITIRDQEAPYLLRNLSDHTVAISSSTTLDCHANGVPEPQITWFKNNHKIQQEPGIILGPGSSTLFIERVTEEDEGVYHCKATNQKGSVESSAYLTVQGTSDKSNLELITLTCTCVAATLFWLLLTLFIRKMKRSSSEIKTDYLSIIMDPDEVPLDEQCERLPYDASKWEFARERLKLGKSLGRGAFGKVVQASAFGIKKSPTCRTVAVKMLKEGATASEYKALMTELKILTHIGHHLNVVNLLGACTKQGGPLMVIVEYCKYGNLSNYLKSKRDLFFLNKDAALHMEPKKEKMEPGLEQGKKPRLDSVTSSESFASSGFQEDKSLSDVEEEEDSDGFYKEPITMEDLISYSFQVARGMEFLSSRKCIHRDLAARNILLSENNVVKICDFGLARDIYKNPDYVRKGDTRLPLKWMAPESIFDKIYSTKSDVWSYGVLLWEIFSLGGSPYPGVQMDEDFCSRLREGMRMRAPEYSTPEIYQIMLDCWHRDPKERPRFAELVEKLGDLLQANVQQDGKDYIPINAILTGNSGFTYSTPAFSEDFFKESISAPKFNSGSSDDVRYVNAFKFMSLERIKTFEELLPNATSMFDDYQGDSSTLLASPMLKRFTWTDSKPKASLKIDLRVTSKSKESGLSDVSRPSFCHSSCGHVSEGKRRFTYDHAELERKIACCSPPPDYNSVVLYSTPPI

Broadly, the IC50 is the concentration that inhibits the measured activity by half. As a reminder, the Ki is the equilibrium dissociation constant of an inhibitor or competing ligand from its target. On to `CCCCC(=O)N(Cc1ccc(-c2ccccc2-c2nnn[nH]2)cc1)[C@H](C(=O)O)C(C)C`, for which the half-inhibitory concentration (IC50) entry (in series [1] (sf9); in series [2]; against Cannabinoid receptor 1 (chem-1); in series [3]; against Adenosine receptor A3 (cho-k1); in series [4]) was “Not Active” each time. The Ki entry in series [4] is listed as “Not Active”.

In the case of `O=C(O)COc1ccc(C(=O)c2cccs2)c(Cl)c1Cl`, the IC50 result (in series [1] (sf9); in series [2]; against Cannabinoid receptor 1 (chem-1); in series [3]; against Adenosine receptor A3 (cho-k1); in series [4]) was “Not Active” throughout. The Ki entry in series [4] is reported as “Not Active”.

For `CN1[C@@H]2CC[C@H]1C[C@@H](OC(c1ccccc1)c1ccccc1)C2` [BENZTROPINE], the IC50 result (in series [2]; against Cannabinoid receptor 1 (chem-1); in series [3]; against Adenosine receptor A3 (cho-k1); in series [4]) was “Not Active” throughout. The Ki result in series [4] is given as “Not Active”.

Take `C[C@@](Cc1ccc(O)c(O)c1)(NN)C(=O)O.O` [CARBIDOPA]: the IC50 result (in series [1] (sf9); in series [2]; against Cannabinoid receptor 1 (chem-1); in series [3]; against Adenosine receptor A3 (cho-k1); in series [4]) was “Not Active” throughout. Further, the Ki entry in series [4] is “Not Active”.

Turning to `CN1CCN(C2=Nc3cc(Cl)ccc3Nc3ccccc32)CC1` [CLOZAPINE], the IC50 entry (in series [2]; against Cannabinoid receptor 1 (chem-1); in series [3]; on Adenosine receptor A3 (cho-k1)) was “Not Active” each time.

Turning to `CC(C)NC[C@@H](O)COc1cccc2ccccc12` [DEXPROPRANOLOL], the IC50 entry (in series [1] (sf9); in series [2]; against Cannabinoid receptor 1 (chem-1); in series [3]; against Adenosine receptor A3 (cho-k1); in series [4]) was “Not Active” in each case. For the same compound, the Ki result in series [4] is on record as “Not Active”.

For `CC(C)NC[C@H](O)COc1cccc2ccccc12` [LEVOPROPRANOLOL], the concentration for half-maximal inhibition (IC50) result (in series [1] (sf9); in series [2]; against Cannabinoid receptor 1 (chem-1); in series [3]; against Adenosine receptor A3 (cho-k1); in series [4]) was “Not Active” each time. Also, in series [4], the Ki entry is “Not Active”.

Take `O=C(O)CCCCC1CCSS1` (stereo not drawn) [LIPOIC ACID, ALPHA]: the IC50 entry (in series [1] (sf9); in series [2]; against Cannabinoid receptor 1 (chem-1); in series [3]; against Adenosine receptor A3 (cho-k1); in series [4]) was “Not Active” in each case. Moreover, the Ki entry in series [4] is recorded as “Not Active”.

For `CN(C)C(=O)C(CCN1CCC(O)(c2ccc(Cl)cc2)CC1)(c1ccccc1)c1ccccc1` [LOPERAMIDE], the IC50 result (in series [1] (sf9); in series [2]; against Cannabinoid receptor 1 (chem-1); in series [3]; against Adenosine receptor A3 (cho-k1); in series [4]) was “Not Active” in each case. Besides, the inhibition constant Ki result in series [4] is given as “Not Active”.

`Clc1ccc(COC(Cn2ccnc2)c2ccc(Cl)cc2Cl)c(Cl)c1` (stereo unspecified) [MICONAZOLE]: the IC50 in series [1] (read-out: IC50) is 3970 nM; in series [2], “Not Active”; at Cannabinoid receptor 1 (read-out: IC50), 21000 nM; in series [3], “Not Active”; in series [4] it was “Not Active”. For the same compound, the Ki in series [1] is 1490 nM; at Cannabinoid receptor 1 (read-out: Ki), 16600 nM; in series [4] it was “Not Active”.

For `Oc1ccc2c3c1O[C@H]1[C@@H](O)CC[C@@]4(O)[C@@H](C2)N(CC2CCC2)CC[C@]314` [NALBUPHINE], the IC50 result (in series [1] (sf9); in series [2]; on Cannabinoid receptor 1 (chem-1); in series [3]; against Adenosine receptor A3 (cho-k1); in series [4]) was “Not Active” throughout. The inhibition constant (Ki) entry in series [4] is recorded as “Not Active”.

For `C[C@]12C=CC(=O)C=C1CC[C@@H]1[C@@H]2C(=O)C[C@@]2(C)[C@H]1CC[C@]2(O)C(=O)CO` [PREDNISONE], the half-inhibitory concentration (IC50) result (in series [1] (sf9); in series [2]; against Cannabinoid receptor 1 (chem-1); in series [3]; at Adenosine receptor A3 (cho-k1); in series [4]) was “Not Active” each time. Moreover, the Ki result in series [4] was “Not Active”.

With `OCCOCCN1CCN(C2=Nc3ccccc3Sc3ccccc32)CC1` [QUETIAPINE], the IC50 result (in series [2]; against Cannabinoid receptor 1 (chem-1); in series [3]; at Adenosine receptor A3 (cho-k1)) was “Not Active” in each case.

Consider `COC(=O)[C@H]1[C@H]2C[C@@H]3c4[nH]c5cc(OC)ccc5c4CCN3C[C@H]2C[C@@H](OC(=O)c2cc(OC)c(OC)c(OC)c2)[C@@H]1OC` [RESERPINE], for which the IC50 entry (in series [1] (sf9); in series [2]; at Cannabinoid receptor 1 (chem-1); in series [3]; at Adenosine receptor A3 (cho-k1); in series [4]) was “Not Active” throughout. Besides, in series [4], the Ki result is listed as “Not Active”.

Regarding `O=C(O)c1ccccc1O` [SALICYLIC ACID], the IC50 entry (in series [1] (sf9); in series [2]; on Cannabinoid receptor 1 (chem-1); in series [3]; at Adenosine receptor A3 (cho-k1); in series [4]) was “Not Active” each time. Also, the Ki entry in series [4] was “Not Active”.

For `C[S+]([O-])c1ccc(-c2nc(-c3ccncc3)c(-c3ccc(F)cc3)[nH]2)cc1` (stereo unspecified) [SB-203580], the IC50 result (in series [1] (sf9); at Cannabinoid receptor 1 (chem-1); on Adenosine receptor A3 (cho-k1)) was “Not Active” each time.

With `CC1CCC(NC(=O)N(CCCl)N=O)CC1` (stereo unspecified) [SEMUSTINE], the IC50 was 4810 nM in series [1] (read-out: IC50); “Not Active” in series [2]; “Not Active” against Cannabinoid receptor 1 (chem-1); “Not Active” in series [3]; “Not Active” at Adenosine receptor A3 (cho-k1); “Not Active” in series [4]. The Ki was 1800 nM in series [1] and “Not Active” in series [4].

Regarding `O=C1C[C@@H]2OCC=C3CN4CC[C@]56c7ccccc7N1[C@H]5[C@H]2[C@H]3C[C@H]46` [STRYCHNINE], the concentration for half-maximal inhibition (IC50) result (in series [1] (sf9); in series [2]; against Cannabinoid receptor 1 (chem-1); in series [3]; against Adenosine receptor A3 (cho-k1); in series [4]) was “Not Active” in each case. Further, the Ki result in series [4] is “Not Active”.

As to `C[N+](C)(C)CCOC(=O)CCC(=O)OCC[N+](C)(C)C.[Cl-].[Cl-]` [SUCCINYLCHOLINE CHLORIDE], the IC50 result (in series [1] (sf9); in series [2]; against Cannabinoid receptor 1 (chem-1); in series [3]; against Adenosine receptor A3 (cho-k1); in series [4]) was “Not Active” in each case. In addition, the Ki result in series [4] is reported as “Not Active”.

As to `Nc1ccc(S(=O)(=O)NC(=O)c2ccccc2)cc1` [SULFABENZAMIDE], the IC50 entry (in series [1] (sf9); in series [2]; on Cannabinoid receptor 1 (chem-1); in series [3]; on Adenosine receptor A3 (cho-k1); in series [4]) was “Not Active” in each case. Besides, the Ki result in series [4] is “Not Active”.

`CCCCCCCCNC(C)C(O)c1ccc(SC(C)C)cc1` (stereo unspecified) [SULOCTIDIL]: the half-inhibitory concentration (IC50) is 2020 nM in series [1] (read-out: IC50); “Not Active” in series [2]; “Not Active” at Cannabinoid receptor 1 (chem-1); “Not Active” in series [3]; 3710 nM at Adenosine receptor A3 (read-out: IC50); “Not Active” in series [4]. Moreover, the results for the Ki (in series [1]; on Adenosine receptor A3 (read-out: Ki); in series [4]) were 759 nM, 2090 nM and “Not Active”, respectively.

`O=c1[nH]c(=O)n(C2CCCO2)cc1F` (stereo unspecified) [TEGAFUR]: the IC50 entry (in series [1] (sf9); in series [2]; against Cannabinoid receptor 1 (chem-1); in series [3]; on Adenosine receptor A3 (cho-k1); in series [4]) was “Not Active” each time. In series [4], the Ki entry is reported as “Not Active”.

Take `CC(=N)S` [THIOACETAMIDE]: the IC50 result (in series [1] (sf9); in series [2]; against Cannabinoid receptor 1 (chem-1); in series [3]; on Adenosine receptor A3 (cho-k1); in series [4]) was “Not Active” in each case. Further, in series [4], the Ki entry is reported as “Not Active”.

Regarding `Cc1ccc(C(=O)c2ccc(CC(=O)O)n2C)cc1` [TOLMETIN], the concentration for half-maximal inhibition (IC50) result (in series [1] (sf9); in series [2]; at Cannabinoid receptor 1 (chem-1); in series [3]; against Adenosine receptor A3 (cho-k1); in series [4]) was “Not Active” in each case. Moreover, the Ki entry in series [4] is recorded as “Not Active”.

Consider `CN1CCN(CCCN2c3ccccc3Sc3ccc(C(F)(F)F)cc32)CC1` [TRIFLUOPERAZINE], for which the IC50 result (in series [1] (sf9); in series [2]; on Cannabinoid receptor 1 (chem-1); in series [3]; on Adenosine receptor A3 (cho-k1)) was “Not Active” each time.
